Measurements reported in patent EP4696306A1, “ADENOSINE TRIPHOSPHATE SECRETION INHIBITOR, HEPATIC STELLATE CELL ACTIVATION INHIBITOR, HEPATIC STELLATE CELL DEACTIVATOR, HEPATIC FIBROSIS THERAPEUTIC AGENT, NON-ALCOHOLIC STEATOHEPATITIS THERAPEUTIC AGENT, PSORIASIS THERAPEUTIC AGENT, AND USE OF COMPOUND FOR PRODUCING ADENOSINE TRIPHOSPHATE …” (KURUME UNIVERSITY, priority 2023, dated 2024).

Columns and labels:
[1] = test system: MCD diet-induced NASH; conditions: administration of clodronate; Non Patent Literature 4; cited from earlier work
[2] = molecular target: T1, human VNUT (Homo sapiens, UniProt Q9BYT1); assay: ATP loading into reconstituted liposomes containing human VNUT; type: biochemical; conditions: 0.1 mM PEP; 30°C, 2 minutes; N = 3
T1 construct: made in house; host or cells: HIGH FIVE insect cells (baculovirus)
T1 sequence (Q9BYT1 1-430 isoform Q9BYT1-2): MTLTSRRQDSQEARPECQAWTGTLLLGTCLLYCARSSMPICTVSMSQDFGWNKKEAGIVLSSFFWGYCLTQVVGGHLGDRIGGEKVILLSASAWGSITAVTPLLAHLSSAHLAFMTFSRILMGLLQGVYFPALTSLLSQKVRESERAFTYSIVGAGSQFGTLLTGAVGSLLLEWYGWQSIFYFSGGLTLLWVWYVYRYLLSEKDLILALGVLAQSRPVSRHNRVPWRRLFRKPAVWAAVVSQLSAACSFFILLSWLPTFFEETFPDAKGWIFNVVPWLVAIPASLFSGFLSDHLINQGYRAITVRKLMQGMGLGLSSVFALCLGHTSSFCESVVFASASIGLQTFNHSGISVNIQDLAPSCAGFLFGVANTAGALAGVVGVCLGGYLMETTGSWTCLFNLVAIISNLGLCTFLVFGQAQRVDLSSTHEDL
Experimental: Human VNUT was prepared according to Reference C (Keisuke Sawada et al., 2008, Identification of a vesicular nucleotide transporter, Proc Natl Acad Sci USA, vol. 105, no. 15, 5683-5686). Insect cells (HIGH FIVE cells) were infected at MOI = 1 with a baculovirus in which a human VNUT expression system was incorporated. HIGH FIVE cells expressing VNUT (1 × 10^8 cells) were collected with a cell scraper, and suspended at about 8 mg/ml in 20 mM Tris-HCl (pH 8.0), 0.1 M potassium acetate, 10% glycerol, 10 µg/ml pepstatin A, and 10 µg/ml leupeptin, followed by homogenization of the cells using an ultrasonic generator (manufactured by Sonics Materials). […]
VNUT (protein, 20 µg) prepared by the above method was mixed with liposomes (lipid weight, 200 µg), and left to stand at -80°C for 30 minutes. […] A major band was detected at a position of about 68 kDa. The proteins after the electrophoresis with the ePAGEL E-T520 2-10% gradient gel (manufactured by Atto) were electrotransferred to a nitrocellulose sheet, and analyzed by Western blotting using an anti-human SLC17A9 (VNUT) rabbit polyclonal antibody (manufactured by Proteintech).
The ATP transport activity of the VNUT-containing reconstituted liposomes prepared by the above method was measured. […]

For `O=P(O)(O)C(Cl)(Cl)P(=O)(O)O` [clodronate], the “NASH activity score, inflammatory cell infiltration, and hepatic fibrosis” value [1] is given as “improves the NASH activity score, inflammatory cell infiltration, and hepatic fibrosis”.
For `C=C(OP(=O)(O)O)C(=O)O` [PEP, phosphoenolpyruvic acid], the “ATP loading into liposomes” value [2] was “strongly inhibited”.
